Measured values: EP1538164A1, “RGD targeting moiety its production and use” (Vectron Therapeutics AG, priority 2003, dated 2005)
Positions of bridges follow the written chain, without caps; N, C: chain ends. Residues, ends and D or L forms follow the SMILES beside them.

Experiments:
HUVEC [1] = experiment: Direct binding of carboxyfluorescein-labelled RGD-10 to HUVEC; parameters: species or system human; conditions: synthetic carboxyfluorescein-labeled RGD-10 peptide, Fig. 1
Procedure: Fig. 1: Binding of carboxyfluorescein-labelled RGD-10 to HUVECs. Thin line - cells without peptide, bold line - cells incubated with CF-labelled RGD-10. Fig. 2: Titration of inhibition of RGD-10 binding by peptides RGD-10 or RGD-4C analyzed by cell ELISA. Fig. 3: Structure of lipopeptides consisting of a peptide ligand with an acetylated Nterminus, the doo spacer linked to a dipalmitoyl-glycero-succinyl-lysine anchor. Fig. 4: A) Binding of RGD10 liposomes to HUVEC or B16.F10. Liposomes containing the RGD10-LP or RGD10-LP3 lipopeptide at a conc. of 0.1 mol% (thin line), 1 mol% (normal line), or 5 mol% (bold line) were analyzed for binding to HUVECs or B16.F10 (marked with 0). Binding of liposomes lacking lipopeptides is indicated as dotted line. B.) Liposomes containing the RGD10LP3 lipopeptide at a conc. of 1 mol% were analyzed for binding to MeWo or A431 cells. Dotted line = cells alone, normal line = liposomes without lipopeptide, bold line, RGD10-LP3 liposomes. Fig. 5: Competition experiments. […] Fluorescence microscopy analysis of binding of RGD10-LP3 liposomes or liposomes lacking lipopeptide (untargeted liposomes) to HUVECs at 4°C or 37°C. […] Fig. 8: Antitumor effects of LP3-liposomes (Dox-LP3 liposomes) loaded with doxorubicin in comparison to untargeted liposomes (Dox liposomes) or free doxorubicin analyzed in a C26 murine colon carcinoma tumor model. […]

HDMEC = experiment: Peptide binding to HDMEC; parameters: species or system human; conditions: compared with RGD-4C oxidized in two steps
Source text: For further analysis we selected 2C-RGD peptide RGD-10 ([…]). The RGD-10 peptide was synthesized with the sequence […], thus lacking the C-terminal aspartate residue and resulting in a neutral net charge. […] For these experiments RGD-4C was oxidized in a two-step process to obtain disulfide bonds between C1-C4 and C2-C3 described to be essential for high affinity binding (Assa-Munt, et al. (2001) Biochemistry 40: 2373-2378). Compared to RGD-4C, RGD-10 contains only 2 cysteine residues, which facilitates synthesis of oxidized peptides using a one-step oxidation reaction. Furthermore, RGD-10 contains two aromatic residues, which allows spectrophotometrical detection at 280 nm. […] Thus, RGD-10 binds with the same affinity to integrin-expressing cells as RGD-4C, however, is much simpler to produce.

HUVEC [2] = experiment: Competition of liposome binding by free competitors (HUVEC); parameters: species or system human
Procedure: Fig. 1: Binding of carboxyfluorescein-labelled RGD-10 to HUVECs. Thin line - cells without peptide, bold line - cells incubated with CF-labelled RGD-10. Fig. 2: Titration of inhibition of RGD-10 binding by peptides RGD-10 or RGD-4C analyzed by cell ELISA. Fig. 3: Structure of lipopeptides consisting of a peptide ligand with an acetylated Nterminus, the doo spacer linked to a dipalmitoyl-glycero-succinyl-lysine anchor. Fig. 4: A) Binding of RGD10 liposomes to HUVEC or B16.F10. Liposomes containing the RGD10-LP or RGD10-LP3 lipopeptide at a conc. of 0.1 mol% (thin line), 1 mol% (normal line), or 5 mol% (bold line) were analyzed for binding to HUVECs or B16.F10 (marked with 0). Binding of liposomes lacking lipopeptides is indicated as dotted line. B.) Liposomes containing the RGD10LP3 lipopeptide at a conc. of 1 mol% were analyzed for binding to MeWo or A431 cells. Dotted line = cells alone, normal line = liposomes without lipopeptide, bold line, RGD10-LP3 liposomes. Fig. 5: Competition experiments. […] Thin line = cells alone, normal line = plus peptide or 5 doo, bold line = liposomes without competitor. Fig. 6: Cell binding and internalization of RGD-10-LP3 liposomes. Fluorescence microscopy analysis of binding of RGD10-LP3 liposomes or liposomes lacking lipopeptide (untargeted liposomes) to HUVECs at 4°C or 37°C. […] Fig. 7: Pharmacokinetic analysis of liposomes containing 1 mol% LP1, 1 mol% LP3, or 0.1 mol% LP3. Fig. 8: Antitumor effects of LP3-liposomes (Dox-LP3 liposomes) loaded with doxorubicin in comparison to untargeted liposomes (Dox liposomes) or free doxorubicin analyzed in a C26 murine colon carcinoma tumor model.
(§1) Thus, binding to integrin-expressing cells is specifically mediated by the RGD peptide.

B16.F10 = experiment: Competition of liposome binding by free competitors (B16.F10); parameters: species or system murine; conditions: RGD10 LP1-containing liposomes
Source text: as §1

[3] = system: integrin-expressing cells; conditions: titration of competition of RGD-10 binding, cell ELISA, Fig. 2
[4] = RGD10-LP3 liposomes (1 mol% lipopeptide), 100 µM competitor, Fig. 5
[5] = RGD10 LP1-containing liposomes (Example 3)

Structure (SMILES)	binding to HUVEC (HUVEC [1])	binding strength to HDMEC (HDMEC)	inhibition of binding of liposomes to HUVEC (HUVEC [2]; [4])	inhibition of binding of liposomes to HUVEC (HUVEC [2]; [5])	inhibition of binding of liposomes to B16.F10 (B16.F10)	IC50 [3]
C[C@H](NC(=O)CN)C(=O)N[C@@H](CCCNC(=N)N)C(=O)N[C@@H](Cc1ccc(O)cc1)C(=O)N[C@H]1CSSC[C@@H](C(=O)N[C@@H](Cc2ccccc2)C(=O)N[C@@H](CC(=O)O)C(=O)NCC(=O)O)NC(=O)[C@H](CC(=O)O)NC(=O)CNC(=O)[C@H](CCCNC(=N)N)NC1=O [RGD-10] (H-GARYCRGDCFDG-OH; disulfide 5-9; N-terminus and C-terminus assumed)	Direct binding	comparable strength as RGD-4C	completely inhibited	completely inhibited	completely inhibited	~200 nM
C[C@H](N)C(=O)N[C@H]1CSSC[C@@H](C(=O)NCC(=O)O)NC(=O)[C@H](Cc2ccccc2)NC(=O)[C@@H]2CSSC[C@H](NC(=O)[C@H](CC(=O)O)NC1=O)C(=O)N[C@@H](CCCNC(=N)N)C(=O)NCC(=O)N[C@@H](CC(=O)O)C(=O)N2 [RGD-4C, reference compound] (H-ACDCRGDCFCG-OH; disulfide 2-10, 4-8; N-terminus and C-terminus assumed)	–	–	completely inhibited	completely inhibited	completely inhibited	–
